13 compounds from ChEMBL document CHEMBL2169791, “Strategies for the design of HIV-1 non-nucleoside reverse transcriptase inhibitors: lessons from the development of seven representative paradigms” (J Med Chem, 2012) can be followed below.

SMILES strings stand for the structures. ≈ marks a conversion by molar mass, not a printed value.

A short description of data set [1]: Half life in HIV1-infected patient. In kind it is ADME, organism-based. The following applies: human, in vivo.
Data set [2] relates to Human immunodeficiency virus 1. In words: Antiviral activity against HIV1 infected in MT4 cells. The following applies: Human immunodeficiency virus 1, MT4. In kind it is functional, organism-based.
For data set [3], the system named is Human immunodeficiency virus 1. In words: Antiviral activity against HIV1 harboring reverse transcriptase K103N/Y181C mutant. Format: functional, organism-based.
For data set [4], the system named is Human immunodeficiency virus 1. In words: Antiviral activity against HIV1 harboring reverse transcriptase L100I/K103N mutant. In kind it is functional, organism-based.
For data set [5], the system named is Human immunodeficiency virus 1. Description: Antiviral activity against HIV1 harboring reverse transcriptase Y188L mutant. In kind it is functional, organism-based.
For data set [6], the system named is Human immunodeficiency virus 1. Description: Antiviral activity against HIV1 harboring reverse transcriptase Y181C mutant. In kind it is functional, organism-based.
For data set [7], the system named is Human immunodeficiency virus 1. In words: Antiviral activity against HIV1 harboring reverse transcriptase K103N mutant. Format: functional, organism-based.
Data set [8] relates to Human immunodeficiency virus 1. Description: Antiviral activity against HIV1 harboring reverse transcriptase L100I mutant. In kind it is functional, organism-based.
Data set [9] relates to Human immunodeficiency virus 1. Description: Antiviral activity against wild type HIV1. In kind it is functional, organism-based.
Data set [10] is described as follows: Selectivity index, ratio of cytotoxic concentration for human MT4 cells to IC50 for HIV1 3B. Format: toxicity, cell-based. The following applies: read-out: Selectivity Index.
Data set [11] relates to Human immunodeficiency virus 1. Description: Antiviral activity against HIV1 3B infected in MT4 cells. Format: functional, organism-based. The note with it: Human immunodeficiency virus 1, 3B.
Data set [12] deals with Human immunodeficiency virus 1. Description: Ratio of nevirapine EC50 to compound EC50 for HIV1. Format: functional.
The nature of data set [13]: Half life in plasma. In kind it is ADME, cell-free.
For data set [14], the system named is Human immunodeficiency virus 1. Description: Antiviral activity against HIV1 infected in human assessed as log reduction in viral load at 800 mg administered QD for 7 days measured on day 8 relative to placebo-control. Format: functional.
Data set [15] has as its system Human immunodeficiency virus 1. In words: Antiviral activity against HIV1 infected in human assessed as log reduction in viral load at 750 mg administered QD for 7 days measured on day 8 relative to placebo-control. Format: functional.
The test system of data set [16] is Human immunodeficiency virus 1. Description: Antiviral activity against HIV1 infected in human assessed as log reduction in viral load at 500 mg administered QD for 7 days measured on day 8 relative to placebo-control. In kind it is functional.
The test system of data set [17] is Human immunodeficiency virus 1. Description: Antiviral activity against HIV1 3B infected in MT4 cells assessed as inhibition of virus-induced cytopathic effect after 5 days by MTT assay. In kind it is functional, organism-based. The note with it: Human immunodeficiency virus 1, 3B, MT4, 120 h.
Data set [18] has as its system Human immunodeficiency virus 1. In words: Antiviral activity against HIV1 infected in human assessed as viral copies at 25 to 150 mg. In kind it is functional.
Data set [19] concerns Human immunodeficiency virus 1. Description: Antiviral activity against HIV1 infected in human assessed as log reduction in viral load at 25 to 150 mg administered QD for 7 days measured on day 8 relative to placebo-control. In kind it is functional.
Data set [20] can be described thus: Half life in HIV-infected patient plasma. Format: ADME, organism-based. The note with it: human.

The compound `O=C(CSc1nnc(Br)n1-c1ccc(C2CC2)c2ccccc12)Nc1ccc(C(=O)[O-])cc1Cl.[K+]` had a half-life in [1] of 11 h.
Take `Cc1cc(S(N)(=O)=O)ccc1NC(=O)COc1ccc(Cl)cc1C(=O)c1cc(F)cc(C(F)(F)F)c1`: inhibition in data set [2] was half-maximal at 0.5 nM (IC50).
`CCN(CC)CCOc1ccc(NC(=O)COc2ccccc2C(=O)c2ccc(OC)cc2)cc1` returned an IC50 in data set [2] of 10 µg/mL.
Turning to `Cc1cc(C#N)cc(C)c1Oc1nc(Nc2ccc(C#N)cc2)ncc1Br`, the IC50 came out at 25 nM in data set [3]; 49 nM in data set [4]; 5.9 nM in [5]; 22 nM in data set [6]; 1.4 nM in [7]; 6.6 nM in [8]. Moreover, the IC50 in data set [9] is 1.4 nM.
Turning to `CC(C)=CCN1Cc2cccc3[nH]c(=S)n(c23)C[C@@H]1C`, the selectivity ratio in [10] was determined as 31100. Inhibition in [11] was half-maximal at 28 nM (IC50).
Take `Cc1cc(C#N)cc(C)c1Oc1ccnc(Nc2ccc(C#N)cc2)n1`: the IC50 is 94 nM in [3]; 798 nM in data set [4]; 19 nM in data set [5]; 37 nM in data set [6]; 2.7 nM in data set [7]; 73 nM in data set [8]. Half-maximal inhibition in [9] (IC50) required 1.1 nM.
For the compound `CCN1c2ncc(CCOc3cc[n+]([O-])c4ccccc34)cc2C(=O)N(C)c2cccnc21` [BILR 355], in data set [12], the “Ratio EC50” value is recorded as greater than 10. Moreover, the half-maximal effective concentration (EC50) in [9] was 0.00026 µg/mL (≈ 0.589 nM).
For the compound `Cc1cc(C#N)cc(C)c1Oc1nc(Nc2ccc(C#N)cc2)nc(N)c1Br` [ETRAVIRINE], the half-life in [13] was 30 h. The figures for the IC50 in data set [3], in [4] and in data set [9] were 4.3 nM, 19 nM and less than 10 nM, respectively.
`CO[P@](=O)(c1cc(C)cc(/C=C/C#N)c1)c1c(C(N)=O)[nH]c2ccc(Cl)cc12` [FOSDEVIRINE]: in data set [14], the FC was 2.1.
`CCc1nn(CCO)c(CC)c1Oc1cc(C#N)cc(C#N)c1` [LERSIVIRINE]: the values for the FC in data set [15] and in [16] were 2 and 1.9, respectively.
As to `CC(=O)c1ccc(C)cc1NC(C(N)=O)c1c(Cl)cccc1Cl` (centres undefined) [LOVIRIDE], the IC50 in [17] came out at 13 nM.
`Cc1cc(/C=C/C#N)cc(C)c1Nc1ccnc(Nc2ccc(C#N)cc2)n1` [RILPIVIRINE]: the Activity in data set [18] is less than 50 mL⁻¹. The FC in data set [19] is on record as 1.199. In data set [20], this compound had a half-life of 48 h.
For the compound `Cc1cn([C@H]2C[C@H](N=[N+]=[N-])[C@@H](CO)O2)c(=O)[nH]c1=O` [ZIDOVUDINE], the selectivity ratio in [10] was found to be 6200. This compound also came in with an IC50 in [11] of 1.5 nM.
